From patent US20150018546A1, “HETEROCYCLIC COMPOUND HAVING ANTI-HIV ACTIVITY” (TOYAMA CHEMICAL CO., LTD., priority 2012, published 2015)
pIC50: −log10 of the molar value.

Test system: HIV-1 (JRCSF)
Experiment: Anti-HIV activity in MaRBLE cells infected with HIV-1 (JRCSF), luciferase readout
Assay type: cell-based
Details: Human immunodeficiency virus 1, 168 h; MaRBLE cells (human T lymphocyte-derived HPB-M(a)) infected with HIV-1 (JRCSF); 7 days culture; rate of viral proliferation by luciferase activity; read-out: Anti-HIV activity IC50
Method in brief: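 HPB-M(a)-derived MaRBLE cells carrying HIV-1 LTR-luciferase and CCR5, infected with HIV-1 JRCSF, 1×10^5 cells/well in RPMI1640/10% FCS, cultured 7 days at 37 °C. Luciferase read; proliferation % relative to compound-free wells minus uninfected background; IC50 by linear regression on log concentration.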

| Structure (SMILES) | pIC50 |
| --- | --- |
| O=c1cc(NCc2ccc(O)cc2)c2cncnc2n1O [Example 103, 8-hydroxy-5-((4-hydroxybenzyl)amino)pyrido[2,3-d]pyrimidin-7(8H)-one] | 6.70 |
| Cc1ncnc2c1c(NC1CCN(C)CC1)cc(=O)n2O [Example 90, 8-hydroxy-4-methyl-5-((1-methylpiperidin-4-yl)amino)pyrido[2,3-d]pyrimidin-7(8H)-one] | 6.24 |
| COc1ccc(CNc2cc(=O)n(O)c3ncnc(C)c23)c(OC)c1 [Example 38, 5-((2,4-dimethoxybenzyl)amino)-8-hydroxy-4-methylpyrido[2,3-d]pyrimidin-7(8H)-one] | 7.38 |
| Cc1ccncc1CNc1cc(=O)n(O)c2ncnc(C)c12 [Example 54, 8-hydroxy-4-methyl-5-(((4-methylpyridin-3-yl)methyl)amino)pyrido[2,3-d]pyrimidin-7(8H)-one] | 6.96 |
| Cc1ncnc2c1c(NCCc1cccnc1)cc(=O)n2O [Example 85, 8-hydroxy-4-methyl-5-((2-(pyridin-3-yl)ethyl)amino)pyrido[2,3-d]pyrimidin-7(8H)-one] | 6.51 |
| Cc1ncccc1CNc1cc(=O)n(O)c2ncnc(C)c12 [Example 48, 8-hydroxy-4-methyl-5-(((2-methylpyridin-3-yl)methyl)amino)pyrido[2,3-d]pyrimidin-7(8H)-one] | 7.03 |
| Cc1ncnc2c1c(NCc1cccnc1N(C)C)cc(=O)n2O [Example 41, 5-(((2-(dimethylamino)pyridin-3-yl)methyl)amino)-8-hydroxy-4-methylpyrido[2,3-d]pyrimidin-7(8H)-one] | 7.32 |
| Cc1ncnc2c1c(N)cc(=O)n2O [Example 127, 5-amino-8-hydroxy-4-methylpyrido[2,3-d]pyrimidin-7(8H)-one] | 6.82 |
| Cc1ncnc2c1c(NCc1ccc3c(c1)OCO3)cc(=O)n2O [Example 49] | 7.21 |
| Cc1ncnc2c1c(NCc1ccccc1C(F)(F)F)cc(=O)n2O [Example 149, 8-hydroxy-4-methyl-5-((2-(trifluoromethyl)benzyl)amino)pyrido[2,3-d]pyrimidin-7(8H)-one] | 7.59 |
| Cc1c(O)c2c(-c3ccccc3)ncnc2n(O)c1=O [Example 68, 5,8-dihydroxy-6-methyl-4-phenylpyrido[2,3-d]pyrimidin-7(8H)-one] | 6.60 |
| O=c1cc(O)c2c(Cc3ccccc3)ncnc2n1O [Example 66, 4-benzyl-5,8-dihydroxypyrido[2,3-d]pyrimidin-7(8H)-one] | 6.25 |

Results, then the compound that gave them:

| pIC50 | Structure (SMILES) |
| --- | --- |
| 7.12 | Cc1ncnc2c1c(NCc1ccc(N(C)C)cc1)cc(=O)n2O [Example 30, 5-((4-(dimethylamino)benzyl)amino)-8-hydroxy-4-methylpyrido[2,3-d]pyrimidin-7(8H)-one] |
| 7.30 | Cc1ncnc2c1c(NCc1cccc(N(C)C)c1)cc(=O)n2O [Example 29, 5-((3-(dimethylamino)benzyl)amino)-8-hydroxy-4-methylpyrido[2,3-d]pyrimidin-7(8H)-one] |
| 7.14 | Cc1ncnc2c1c(NCc1ccc(C#N)cc1)cc(=O)n2O [Example 42, 4-(((8-hydroxy-4-methyl-7-oxo-7,8-dihydropyrido[2,3-d]pyrimidin-5-yl)amino)methyl)benzonitrile] |
| 6.72 | O=c1cc(NCc2ccccc2)c2c(-c3ccccc3)ncnc2n1O [Example 60, 5-(benzylamino)-8-hydroxy-4-phenylpyrido[2,3-d]pyrimidin-7(8H)-one] |
| 7.07 | Cc1ncnc2c1c(NCc1cccc3[nH]ccc13)cc(=O)n2O [Example 89, 8-hydroxy-5-(((1H-indol-4-yl)methyl)amino)-4-methylpyrido[2,3-d]pyrimidin-7(8H)-one] |
| 7.37 | Cc1ncnc2c1c(NCc1cccc(C(F)(F)F)c1)cc(=O)n2O [Example 28, 8-hydroxy-4-methyl-5-((3-(trifluoromethyl)benzyl)amino)pyrido[2,3-d]pyrimidin-7(8H)-one] |
| 6.35 | Cc1ncnc2c1c(NCc1nc3ccccc3[nH]1)cc(=O)n2O [Example 55, 5-(((1H-benzimidazol-2-yl)methyl)amino)-8-hydroxy-4-methylpyrido[2,3-d]pyrimidin-7(8H)-one] |
| 6.89 | CC(=O)Nc1ccc(CNc2cc(=O)n(O)c3ncnc(C)c23)cc1 [Example 142, N-(4-(((8-hydroxy-4-methyl-7-oxo-7,8-dihydropyrido[2,3-d]pyrimidin-5-yl)amino)methyl)phenyl)acetamide] |
| 7.19 | Cc1ncnc2c1c(NCc1cccc(C#N)c1)cc(=O)n2OCc1ccccc1 [Example 34, 3-(((8-(benzyloxy)-4-methyl-7-oxo-7,8-dihydropyrido[2,3-d]pyrimidin-5-yl)amino)methyl)benzonitrile] |
| 7.34 | Cc1ncnc2c1c(NCc1cncc3ccccc13)cc(=O)n2O [Example 141, 8-hydroxy-5-(((isoquinolin-4-yl)methyl)amino)-4-methylpyrido[2,3-d]pyrimidin-7(8H)-one] |
